# Patent US11053205B2, “Phenazine derivatives as antimicrobial agents” (University of Florida Research Foundation, Incorporated, priority 2017, dated 2021)
# pIC50: −log10 of the molar value. “And” between values parts separate entries of the source, which are not always exact repeats. Identical values can stand only once. Like-named read-outs stand apart in the source and are kept apart here. Marks after values point to notes of the source that are not given here.
# Tests used:
# MRSE 35984 biofilms = assay: Calgary Biofilm Device (CBD) assay, MBC/MBEC; conditions: CBD; for MRSE 35984 MBEC: biofilm eradication; for MRSE 35984 MBC: planktonic killing
# MRSA-2 biofilms = assay: Calgary Biofilm Device (CBD) assay, MBC/MBEC; conditions: CBD; for MRSA-2 MBEC: biofilm eradication; for MRSA-2 MBC: planktonic killing
# VRE 700221 biofilms = assay: Calgary Biofilm Device (CBD) assay, MBC/MBEC; conditions: for VRE 700221 MBC: planktonic killing
# MRSE 35984 = assay: MIC, broth microdilution (CLSI); conditions: for MRSE 35984 MIC: 16 to 18 hours at 37° C.
# VRE 700221 = assay: MIC, broth microdilution (CLSI); conditions: 16 to 18 hours at 37° C.
# MRSA BAA-1707 biofilms = assay: Calgary Biofilm Device (CBD) assay, MBC/MBEC; conditions: for MRSA BAA-1707 MBEC / MRSA BAA-1707 MBC: CBD; for MRSA BAA-1707 MBEC: biofilm eradication; for MRSA BAA-1707 MBC: planktonic killing
# [1] = test system: M. tuberculosis H37Ra (ATCC 25177); assay: MIC assay for Mycobacterium tuberculosis; format: cell-based; conditions: read-out: MtB H37Ra MIC
# Description: The culture was then diluted with fresh medium until an OD600 of 0.01 was reached. […] The final DMSO concentration was maintained at 0.5%. […] Three rows were reserved for each compound. […] OD600 absorbance was recorded using SPECTRAMAX M5 (Molecular Devices). Data obtained from three independent experiments were analyzed using Excel.
# The culture was then diluted with fresh medium until an OD600 of 0.01 was reached. […] The final DMSO concentration was maintained at 0.5%. […] Three rows were reserved for each compound. […] OD600 absorbance was recorded using SpectraMax M5 (Molecular Devices). Data obtained from three independent experiments were analyzed using Excel.
# HeLa cells [2] = test system: HeLa cells
# MRSA BAA-44 biofilms = assay: Calgary Biofilm Device (CBD) assay, MBC/MBEC; conditions: for MRSA BAA-44 MBEC: biofilm eradication; for MRSA BAA-44 MBC: planktonic killing
# HeLa cells [3] = assay: LDH release assay for HeLa cytotoxicity
# [4] = LDH release assay for HeLa cytotoxicity; conditions: human, HeLa cells
# MRSA-2 = assay: MIC, broth microdilution (CLSI); conditions: for MRSA-2 MIC: 16 to 18 hours at 37° C.
# MRSA BAA-1707 [5] = assay: MIC, broth microdilution (CLSI); conditions: 0.10 = lowest concentration tested; for MRSA BAA-1707 MIC: 16 to 18 hours at 37° C.
# MRSA-1 = assay: MIC, broth microdilution (CLSI)
# S. epi 12228 = assay: MIC, broth microdilution (CLSI); conditions: Staphylococcus epidermidis, 12228, read-out: S. epi 12228 MIC
# MRSA, MRSE, and VRE = assay: MIC assays against MRSA, MRSE, and VRE (all strains); conditions: in words
# MRSA BAA-1707 [6] = assay: Macromolecular synthesis inhibition assay; format: cell-based, Staphylococcus aureus
# Description: Macromolecular synthesis experiments were carried out in methicillin-resistant Staphylococcus aureus BAA-1707. An overnight culture (100 μL) of S. aureus BAA-1707 was sub-cultured into 10 mL of fresh TSBG media, which was allowed to grow to exponential phase (OD600=0.2−0.3) before transferring 500 μL to each well in a 24 well-plate. The test compounds and vehicle control (DMSO) were added to achieve the desired concentrations relative to their MIC values against S. aureus BAA-1707. Treated cultures were then incubated at 37° C. for 30 minutes before radioactive precursors for DNA ([^3H] thymidine (0.5 μCi)), RNA ([^3H] uridine (0.5 μCi)) and protein ([^3H] leucine (1 μCi)) were added. […] DMSO served as the negative control. DNA and RNA radiolabeled cultures were then incubated in 37° C. for 15 minutes before being stopped by adding 60 μL of cold 5% trichloroacetic acid (TCA). The protein synthesis experiment was stopped after 40 minutes by adding 60 μL cold TCA. These mixtures were then incubated at 2° C. for at least 30 minutes before the contents of the plates were transferred onto glass microfiber filters (24 mm) and washed 5 times with 1 mL of 5% TCA. The filters are allowed to dry overnight before 3.5 mL of the scintillation fluid was added to the scintillation vials containing the filters and the radiation counts were measured using liquid scintillation LS 6500.
# For these experiments, MRSA-1707 cultures were treated with [^3H]-thymidine (DNA biosynthesis), [^3H]-uridine (RNA biosynthesis) and [^3H]-leucine (protein biosynthesis) in the presence of HP 1 and antibiotic controls (4-16×MIC).
# MRSA-1707 biofilms = assay: CBD pulse experiments (two sequential 24 hour treatments); format: cell-based, Staphylococcus aureus; conditions: two sequential 24 hour compound treatments
# MRSA BAA-1707 [7] = assay: Metal(II)-cation co-treatment MIC assay; format: cell-based; conditions: Staphylococcus aureus
# UV-Vis metal(II) binding = format: physicochemical; conditions: kinetics of UV-Vis experiments
# Description: Spectral scanning was performed from 200 to 800 nm in 2 nm increments.
# [8] = Mycobacterium tuberculosis, 168 h, seven days at 37° C.
# [9] = copper(II) at 200 μM, read-out: MIC w/ Cu2+
smiles,measurement,setting,value
Oc1c(Br)cc(Br)c2nc3ccccc3nc12 [Compound 1A],MRSE 35984 MBEC,MRSE 35984 biofilms,100 µM
same,MRSE 35984 MBC,MRSE 35984 biofilms,50 µM
same,MRSA-2 MBEC,MRSA-2 biofilms,100 µM
same,MRSA-2 MBC,MRSA-2 biofilms,50 µM
same,VRE 700221 MBC,VRE 700221 biofilms; CBD,23.5 µM
same,MRSE 35984 MIC,MRSE 35984,1.17^a μM and 1.17 μM
same,VRE 700221 MIC,VRE 700221,6.25 µM
same,MRSA BAA-1707 MBEC,MRSA BAA-1707 biofilms,150 µM
same,MRSA BAA-1707 MBC,MRSA BAA-1707 biofilms,37.5 µM and 18.8 µM
same,MIC,[1],25 µM
same,pIC50,HeLa cells [2],< 4.00
same,MRSA BAA-44 MBEC,MRSA BAA-44 biofilms,150 µM
same,MRSA BAA-44 MBC,MRSA BAA-44 biofilms,375 µM
Oc1c(Br)cc(Br)c2nc3c(Br)cccc3nc12 [HP 1-23],Hemolysis at 200 μM,"human red blood cells; human, 1 h, 200 μM, pH 7.2",5.1%
same,selectivity index (HeLa IC50 to MRSA BAA-1707 MIC),HeLa cells [3],"> 2,000 fold"
same,IC50 at 24 h,[4],> 100 µM
same,MIC,[1]; [8],25 µM
Oc1c(Br)cc(Br)c2nc3c(O)c(Br)cc(Br)c3nc12 [HP 1-15],MRSE 35984 MIC,MRSE 35984,>50 µM
same,VRE 700221 MIC,VRE 700221,>50 µM
same,MRSA-2 MIC,MRSA-2,>50 µM
same,MRSA BAA-1707 MIC,MRSA BAA-1707 [5],>50 µM
same,MRSA-1 MIC,MRSA-1; 16 to 18 hours at 37° C.,>50 ^ μM
COCCOCCOCCOCCOC(=O)Oc1c(Br)cc(Br)c2nc3c(C)cccc3nc12 [HP 1-25],Hemolysis at 200 μM,"human red blood cells; human, 1 h, 200 μM, pH 7.2",≤1%
same,MIC,S. epi 12228,0.1 µM
same,MIC,[1]; [8],12.5 µM
same,HeLa cell cytotoxicity at 100 μM,HeLa cells [2],no HeLa cell cytotoxicity
CCc1ccc2nc3c(O)c(Br)cc(Br)c3nc2c1 [Compound 53A],MRSE 35984 MBEC,MRSE 35984 biofilms,75 µM
same,MRSE 35984 MBC,MRSE 35984 biofilms,50 µM
same,Hemolysis at 200 μM,human red blood cells,3.0%
same,MRSA-2 MBEC,MRSA-2 biofilms,150 µM
same,MRSA-2 MBC,MRSA-2 biofilms,75 µM
same,MRSE 35984 MIC,MRSE 35984,0.1^b μM
same,VRE 700221 MIC,VRE 700221,2.35^a μM
same,MRSA-2 MIC,MRSA-2,0.59^a μM
same,MRSA BAA-1707 MBEC,MRSA BAA-1707 biofilms,150 µM
same,MRSA BAA-1707 MBC,MRSA BAA-1707 biofilms,75 µM
same,MRSA BAA-1707 MIC,MRSA BAA-1707 [5],0.1^b μM
same,MIC,[1],6.25 µM
same,MRSA BAA-44 MBEC,MRSA BAA-44 biofilms,75^a/75^a μM
same,MRSA BAA-44 MBC,MRSA BAA-44 biofilms,75^a/75^a μM
OC[C@H]1O[C@@H](Oc2c(Br)cc(Br)c3nc4ccccc4nc23)[C@H](O)[C@@H](O)[C@@H]1O [79A],activity in MIC assays,"MRSA, MRSE, and VRE",no activity in MIC assays
"Oc1c(Br)cc(Br)c2nc3ccccc3nc12 [HP 1, 2,4-dibromophenazin-1-ol]",Hemolysis at 200 μM,"human red blood cells; human, 1 h, 200 μM, pH 7.2",≤1%
same,IC50 at 24 h,[4],100 µM
same,MIC,[1]; [8],25 µM
same,RNA biosynthesis inhibition ([3H]-uridine),MRSA BAA-1707 [6]; at 4×MIC,inhibits both RNA and protein biosynthesis
same,protein biosynthesis inhibition ([3H]-leucine),MRSA BAA-1707 [6]; at 4×MIC,inhibits both RNA and protein biosynthesis
same,DNA biosynthesis inhibition ([3H]-thymidine),MRSA BAA-1707 [6]; at 8×MIC,does not inhibit DNA biosynthesis
Cc1ccc2nc3c(Br)cc(Br)c(O)c3nc2c1 [HP 1-20],melting point,,213 to 215 °C
O=C(OCCSSCCOC(=O)c1ccccc1)OCOc1c(Br)cc(Br)c2nc3ccccc3nc12 [85A],activity in MIC assays,"MRSA, MRSE, and VRE",no antibacterial activity against any pathogen tested
"CCCCCCCCCCCCCCCC[N+](C)(C)Cc1ccccc1.[Cl-] [BAC-16, reference compound]",MBEC (pulse treatment),MRSA-1707 biofilms,25 µM
same,VRE 700221 MBEC,"VRE 700221 biofilms; CBD, biofilm eradication",3.0 µM
same,VRE 700221 MBC,VRE 700221 biofilms; CBD,5.9 µM
same,MRSE 35984 MIC,MRSE 35984,1.56 µM
same,VRE 700221 MIC,VRE 700221,3.13 µM
same,MRSA BAA-1707 MBEC,MRSA BAA-1707 biofilms,15.6 µM
same,MRSA BAA-1707 MBC,MRSA BAA-1707 biofilms,31.3 µM
same,MRSA BAA-1707 MIC,MRSA BAA-1707 [5],1.56 µM
"c1ccc(CN(CCN(Cc2ccccn2)Cc2ccccn2)Cc2ccccn2)nc1 [TPEN, N,N,N′,N′-tetrakis(2-pyridylmethyl)ethane-1,2-diamine, reference compound]",Hemolysis at 200 μM,"human red blood cells; human, 1 h, 200 μM, pH 7.2",≤1%
same,MBC,"VRE 700221 biofilms; Enterococcus, VRE, read-out: VRE 700221 MBC",188 µM
same,MIC,"MRSE 35984; Staphylococcus epidermidis, MRSE, read-out: MRSE 35984 MIC, 16 to 18 hours at 37° C.",12.5 µM
same,MIC,"MRSA-2; Staphylococcus aureus, MRSA, read-out: MRSA-2 MIC",50 µM
same,MRSA BAA-1707 MBC,MRSA BAA-1707 biofilms,250 µM
same,MBC,"MRSA BAA-1707 biofilms; Staphylococcus aureus, BAA1707|MRSA, read-out: MRSA BAA-1707 MBC, CBD, planktonic killing",375 µM
same,MRSA BAA-1707 MIC,MRSA BAA-1707 [5],50 ^ μM
same,MIC,"MRSA BAA-1707 [5]; Staphylococcus aureus, BAA1707|MRSA, read-out: MRSA BAA-1707 MIC, 16 to 18 hours at 37° C.",46.9 µM
same,MIC,MRSA BAA-1707 [7]; [9],500 µM
same,MIC,"MRSA BAA-1707 [7]; iron(II) at 200 μM, read-out: MIC w/ Fe2+",125 µM
same,MIC,"MRSA BAA-1707 [7]; magnesium(II) at 200 μM, read-out: MIC w/ Mg2+",62.5 µM
same,MIC,"MRSA BAA-1707 [7]; no metal(II) cation added, read-out: MIC",46.9 µM
same,MIC,"MRSA BAA-1707 [7]; zinc(II) at 200 μM, read-out: MIC w/ Zn2+",250 µM
same,MIC,"MRSA-1; Staphylococcus aureus, MRSA, read-out: MRSA-1 MIC",75 µM
O=C(OCCOCCOCCOCCO)OCOc1c(Br)cc(Br)c2nc3ccccc3nc12 [82A],activity in MIC assays,"MRSA, MRSE, and VRE",no activity in MIC assays
COCCOCCOCCOC(=O)OCOc1c(Br)cc(Br)c2nc3ccccc3nc12 [80A],activity in MIC assays,"MRSA, MRSE, and VRE",no activity in MIC assays
Oc1c(Br)cc(Br)c2nc3c(Cl)cccc3nc12 [HP 1-21],Hemolysis at 200 μM,"human red blood cells; human, 1 h, 200 μM, pH 7.2",≤1%
same,rate of copper(II) chelation,UV-Vis metal(II) binding,faster rate than HP 1
same,MIC,[1]; [8],50 µM
same,MIC,MRSA BAA-1707 [7]; [9],6.25 µM
